Results on eight compounds are retold here after patent US4089961A, “Antipsychotically useful quinolizidylidene derivatives of xanthenes, thioxanthenes and dibenzoxepins” (priority 1976, dated 1978).

For data set [1], the system named is shock avoidance acquisition. Briefly: blockade of shock avoidance acquisition in the rat (procedure for assessing antipsychotic activity). In kind it is in vivo. Conditions: i.p. How it is done:
(§1) To predict the potential ability of a drug to cause EPS, the ratio of its ED50 (i.p.) for antagonism of amphetamine-induced rotation to its ED50 (i.p.) for blockage of shock avoidance acquisition in the rat, a procedure for assessing antipsychotic activity, (R/A ratio) is calculated.

Data set [2] relates to striatal dopamine receptors. Nature of the data set: antagonism of amphetamine-induced rotation in rats with unilateral 6-hydroxydopamine lesions of the substantia nigra. In kind it is in vivo, rat. The conditions noted are these: for ED50 for antagonism of amphetamine-induced rotation: rat; for ED50: Rattus norvegicus, ip, read-out: Antagonism of Amphetamine-induced Rotation Rats ED50.
Description: (§2) To assess the potency of drugs in blocking striatal dopamine receptors a procedure was used which was developed by Ungerstedt [Ungerstedt and Arbuthnott, Brain Res. 24 485 (1970); Ungerstedt, Acta physiol. scand., Suppl. 367, 49 (1971)] using rats with unilateral lesions of the substantia nigra induced by injection of 6-hydroxydopamine. This treatment causes degeneration of the nigrostriatal dopaminergic pathway accompanied by a marked decrease in the dopamine content of the neostriatum on the side of the lesion. Animals with this lesion develop postural and motor asymmetries which are altered by drugs which effect dopaminergic activity. Amphetamine, which releases dopamine and norepinephrine from catecholaminergic neurons, causes these rats to rotate unidirectionally toward the side of the lesion. Since there is a much larger amount of dopamine to be released by amphetamine from the intact nigrostriatal neurons on the non-lesioned side than from those remaining on the lesioned side, the rotational behavior is apparently due to a preponderance of activation of striatal dopamine receptors on the intact side. The ability of a drug to antagonize the rotational behavior is therefore a measure of its ability to block striatal dopamine receptors and is indicative of its potential to produce EPS.
as §1

Data set [3] concerns striatal dopamine receptors. The conditions noted are these: rat, in vivo, ip.
Description: There is evidence that antipsychotic drugs cause EPS by interfering with neurotransmission in a nigrostriatal dopaminergic pathway. It is throught that they block dopamine receptors in the neostriatum. Therefore, the ability of a drug to block striatal dopamine receptors is a measure of its EPS liability.
as §2, §1

The conditions of data set [4]: clinically established antipsychotics; cited from earlier work.

Molecules are shown by their SMILES. Where two headings read alike, the source gives them in different places.

As to `Clc1ccc2c(c1)C(=C1CCC3CCCCN3C1)c1ccccc1S2` (stereo not drawn) [3-(2-chlorothioxanthen-9-ylidene)quinolizidine, isomer havin], the “ED50 for blockade of shock avoidance acquisition” value in data set [1] was determined as 1.7 mg/kg. Moreover, the “ED50 for antagonism of amphetamine-induced rotation” value in data set [2] (i.p.) was 8.2 mg/kg. For the same compound, the R/A ratio in data set [3] is reported as 4.8.
On to `Clc1ccc2c(c1)C(=C1CCC3CCCCN3C1)c1ccccc1S2` (stereo not drawn) [3-(2-chlorothioxanthen-9-ylidene)quinolizidine, other isomer], for which, in data set [1], the “ED50 for blockade of shock avoidance acquisition” value was 0.7 mg/kg. Besides, the “ED50 for antagonism of amphetamine-induced rotation” value in data set [2] (i.p.) came to 2.3 mg/kg. For the same compound, in data set [3], the R/A ratio is 3.3.
As a reminder, the ED50 is the dose at which the effect has come halfway, by size or by number of responders. On to `CN(C)CCCN1c2ccccc2Sc2ccc(Cl)cc21` [Chlorpromazine], for which, in data set [2], the ED50 turned out to be 2 mg/kg.
As to `CN1CCN(C2=Nc3cc(Cl)ccc3Nc3ccccc32)CC1` [Clozapine, clozapine], in data set [2] (rats, i.p., Table I, R), the ED50 was 25.4 mg/kg. Besides, the “propensity to cause EPS relative to chlorpromazine” value in data set [4] was “known to produce EPS to a lesser extent than chlorpromazine”.
As for `O=C(CCCN1CCC(O)(c2ccc(Cl)cc2)CC1)c1ccc(F)cc1` [Haloperidol, haloperidol], the ED50 in data set [2] (rats, i.p., Table I, R) came to 0.05 mg/kg. For the same compound, the R/A ratio in data set [3] is recorded as 0.3-0.5. Besides, the “propensity to cause EPS relative to chlorpromazine” value in data set [4] is listed as “considerably greater propensity to cause EPS than chlorpromazine”.
As for `O=c1[nH]c2ccccc2n1C1CCN(CCCC(c2ccc(F)cc2)c2ccc(F)cc2)CC1` [Pimozide, pimozide], the ED50 in data set [2] is 0.08 mg/kg. The “propensity to cause EPS relative to chlorpromazine” value in data set [4] is given as “considerably greater propensity to cause EPS than chlorpromazine”.
As to `CSc1ccc2c(c1)N(CCC1CCCCN1C)c1ccccc1S2` (centres unmarked) [Thioridazine, thioridazine], the ED50 in data set [2] (rats, i.p., Table I, R) came out at 13.7 mg/kg. The R/A ratio in data set [3] is given as 2.7. Besides, the “propensity to cause EPS relative to chlorpromazine” value in data set [4] was “known to produce EPS to a lesser extent than chlorpromazine”.
Take `CN1CCN(CCCN2c3ccccc3Sc3ccc(C(F)(F)F)cc32)CC1` [Trifluoperazine, trifluoperazine]: the ED50 in data set [2] (rats, i.p., Table I, R) stood at 0.12 mg/kg. Also, the R/A ratio in data set [3] was 0.3-0.5. In data set [4], the “propensity to cause EPS relative to chlorpromazine” value is reported as “considerably greater propensity to cause EPS than chlorpromazine”.
